Reference: ChEMBL document CHEMBL4342418, “1,2,3-Triazole-containing hybrids as potential anticancer agents: Current developments, action mechanisms and structure-activity relationships” (Eur J Med Chem, 2019)

Experiments:
MDA-MB-231 [1] = assay: Antiproliferative activity against human MDA-MB-231 cells assessed as reduction in cell viability after 72 hrs by MTT assay; format: functional, cell-based; conditions: MDA-MB-231, 72 h, read-out: IC50
U-87 MG = assay: Antiproliferative activity against human U87 cells assessed as reduction in cell viability after 72 hrs by MTT assay; format: functional, cell-based, U-87MG ATCC
IMR-32 = assay: Antiproliferative activity against human IMR32 cells assessed as reduction in cell viability after 72 hrs by MTT assay; format: functional, cell-based; conditions: IMR-32, 72 h
A549 [2] = assay: Antiproliferative activity against human A549 cells assessed as reduction in cell viability after 48 hrs by SRB assay; format: functional, cell-based; conditions: A549, 48 h
HCT-116 [3] = assay: Antiproliferative activity against human HCT116 cells assessed as reduction in cell viability after 48 hrs by SRB assay; format: functional, cell-based; conditions: HCT-116, 48 h
HT-29 [4] = assay: Antiproliferative activity against human HT-29 cells assessed as reduction in cell viability after 48 hrs by SRB assay; format: functional, cell-based; conditions: HT-29, 48 h
MCF7 [5] = assay: Antiproliferative activity against human MCF7 cells assessed as reduction in cell viability after 48 hrs by SRB assay; format: functional, cell-based; conditions: MCF7, 48 h
HT-29 [6] = assay: Antiproliferative activity against human HT-29 cells assessed as reduction in cell viability after 72 hrs by MTT assay; format: functional, cell-based; conditions: HT-29, 72 h
MCF7 [7] = assay: Antiproliferative activity against human MCF7 cells assessed as reduction in cell viability after 72 hrs by MTT assay; format: functional, cell-based; conditions: MCF7, 72 h
MOLT-4 = assay: Antiproliferative activity against human MOLT4 cells assessed as reduction in cell viability after 72 hrs by MTT assay; format: functional, cell-based; conditions: MOLT-4, 72 h
A549 [8] = assay: Antiproliferative activity against human A549 cells assessed as reduction in cell viability after 48 hrs by MTT assay; format: functional, cell-based; conditions: A549, 48 h
HCT-116 [9] = assay: Antiproliferative activity against human HCT116 cells assessed as reduction in cell viability after 48 hrs by MTT assay; format: functional, cell-based; conditions: HCT-116, 48 h
HT-29 [10] = assay: Antiproliferative activity against human HT-29 cells assessed as reduction in cell viability after 48 hrs by MTT assay; format: functional, cell-based; conditions: HT-29, 48 h
HBL-100 = assay: Antiproliferative activity against human HBL100 cells assessed as reduction in cell viability after 48 hrs by MTT assay; format: functional, cell-based; conditions: HBL-100, 48 h
HT-29 [11] = assay: Antiproliferative activity against human HT-29 cells by MTT assay; format: functional, cell-based
MCF-10A = assay: Cytotoxicity against human MCF10A cells by MTT assay; format: cell-based
A549 [12] = assay: cells; format: functional, cell-based; conditions: Homo sapiens
Description: Antiproliferative activity against human A549 cells by MTT assay

MV4-11 = assay: Antiproliferative activity against human MV4-11 cells by MTT assay; format: functional, cell-based
DU-145 = assay: Antiproliferative activity against human DU145 cells by MTT assay; format: functional, cell-based
MCF7 [13] = assay: cells; format: functional, cell-based; conditions: Homo sapiens
Description: Antiproliferative activity against human MCF7 cells by MTT assay

PC-3 = assay: cells; format: functional, cell-based; conditions: Homo sapiens, PC-3, 48 h
Description: Antiproliferative activity against human PC3 cells assessed as reduction in cell viability after 48 hrs by MTT assay

HGC-27 = assay: Antiproliferative activity against human HGC27 cells assessed as reduction in cell viability after 48 hrs by MTT assay; format: functional, cell-based; conditions: HGC-27, 48 h
[14] = Cytotoxicity against dog MDCK1 cells assessed as reduction in cell viability after 72 hrs by MTT assay; format: cell-based; conditions: Canis lupus familiaris, MDCK1, 72 h
Caco-2 = assay: Antiproliferative activity against human Caco2 cells assessed as reduction in cell viability after 72 hrs by MTT assay; format: functional, cell-based; conditions: Caco-2, 72 h
HeLa = assay: Antiproliferative activity against human HeLa cells assessed as reduction in cell viability after 72 hrs by MTT assay; format: functional, cell-based
K562 = assay: Antiproliferative activity against human K562 cells assessed as reduction in cell viability after 72 hrs by MTT assay; format: functional, cell-based; conditions: K562, 72 h
HEK293 = assay: Cytotoxicity against HEK293 cells by MTT assay; format: cell-based; conditions: Homo sapiens
MDA-MB-231 [15] = assay: Antiproliferative activity against human MDA-MB-231 cells by MTT assay; format: functional, cell-based
[16] = Antiproliferative activity against human SMCC7721 cells assessed as reduction in cell viability after 48 hrs by MTT assay; format: functional, cell-based
HL-60 = assay: Antiproliferative activity against human HL60 cells assessed as reduction in cell viability after 48 hrs by MTT assay; format: functional, cell-based; conditions: HL-60, 48 h
SW480 = assay: Antiproliferative activity against human SW480 cells assessed as reduction in cell viability after 48 hrs by MTT assay; format: functional, cell-based; conditions: SW480, 48 h

Measured: IC50

Cc1n[nH]c(=O)c2c1c1cc(F)ccc1n2Cc1cn(C2CCCCC2)nn1
0.042 to 0.478 µM: MDA-MB-231 [1] | U-87 MG | IMR-32

Cc1ccc(-c2nn(-c3ccccc3)cc2/C=C/C(=O)OCc2cn(-c3ccc([N+](=O)[O-])cc3)nn2)cc1
1.76 to 9.46 µM: A549 [2] | HCT-116 [3] | HT-29 [4] | MCF7 [5]

O=C1C=C(NCc2cn(Cc3ccc(C(F)(F)F)cc3)nn2)C(=O)c2ccccc21
6.8 to 10.4 µM: HT-29 [6] | MCF7 [7] | MOLT-4

COc1cc(-n2cc(CO[C@H]3CC[C@@]4(C)C(=CC[C@H]5[C@@H]6C[C@@H]7O[C@]8(CC[C@@H](C)CO8)[C@@H](C)[C@@H]7[C@@]6(C)CC[C@@H]54)C3)nn2)cc(OC)c1OC
5.16 to 9.44 µM: A549 [8] | HCT-116 [9] | HT-29 [10] | HBL-100

C=CCC1CN2CCC1CC2[C@@H](c1ccnc2ccc(OC)cc12)n1cc(-c2ccc3ccccc3n2)nn1 (stereo not given in full)
0.53 to 14.6 µM: HT-29 [11] | MCF-10A | A549 [12] | MV4-11 | DU-145 | MCF7 [13]

COc1cc(-c2nc(Cn3cc(CN4C(=O)c5ccc(C)cc5C4=O)nn3)cc3c2[nH]c2ccccc23)cc(OC)c1OC
3.67 to 26.5 µM: MCF7 [7] | HT-29 [10] | PC-3 | HGC-27

COc1ccc(-c2cn(Cc3cc(=O)oc4cc(O)c(O)cc34)nn2)cc1
9.7 to 81.9 µM: Caco-2 | HeLa | K562
36.7 to 46 µM: [14]

Cc1n[nH]c(=O)c2c1c1cc(F)ccc1n2Cc1cn(Cc2ccc(F)cc2)nn1
0.042 to 0.478 µM: MDA-MB-231 [1] | U-87 MG | IMR-32

COc1cccc(-c2cn(Cc3cc(=O)oc4cc(O)c(O)cc34)nn2)c1
36.7 to 46 µM: [14]
9.7 to 81.9 µM: Caco-2 | HeLa | K562

C=CCC1CN2CCC1CC2[C@H](O)c1cc(-c2cn(-c3ccccc3)nn2)nc2ccc(OC)cc12 (stereo not given in full)
0.53 to 6.4 µM: HT-29 [11] | MCF-10A | A549 [12] | MV4-11 | DU-145 | MCF7 [13]

O=c1cc(Cn2cc(-c3ccccc3)nn2)c2cc(O)c(O)cc2o1
9.7 to 81.9 µM: Caco-2 | HeLa | K562
36.7 to 46 µM: [14]

COc1ccc(-c2nc(Cn3cc(CN4C(=O)c5cccc6cccc(c56)C4=O)nn3)cc3c2[nH]c2ccccc23)cc1OC
3.67 to 26.5 µM: MCF7 [7] | HT-29 [10] | PC-3 | HGC-27

Cc1ccc(-n2nc(N)c(C(=O)NCCNC(=O)c3nn(-c4ccc(C)cc4)nc3N)n2)cc1
7 µM: MDA-MB-231 [15]
> 50 µM: HEK293

COc1cc([C@@H]2c3cc4c(cc3[C@H](n3cc(COCC(COCc5cn([C@H]6c7cc8c(cc7[C@@H](c7cc(OC)c(O)c(OC)c7)[C@H]7C(=O)OC[C@@H]76)OCO8)nn5)O[C@@H]5O[C@H](COC(C)=O)[C@@H](OC(C)=O)[C@H](OC(C)=O)[C@H]5OC(C)=O)nn3)[C@H]3COC(=O)[C@H]23)OCO4)cc(OC)c1O (stereo not given in full)
0.43 to 30.5 µM: A549 [8] | [16] | HL-60 | SW480
